Laboratory results taken from PMC9147192, “Small Molecule Arranged Thermal Proximity Coaggregation (smarTPCA)—A Novel Approach to Characterize Protein–Protein Interactions in Living Cells by Similar Isothermal Dose–Responses” (International Journal of Molecular Sciences, 2022).
pEC50: −log10 of the molar value. “And” between values parts separate entries of the source, which are not always exact repeats. Identical values can stand only once. Like-named read-outs stand apart in the source and are kept apart here.

Key:
GSK-3α = target: T1, GSK-3α (Homo sapiens, UniProt P49840); test: CETSA in HL-60 cell extract, immunoblot; format: binding; conditions: for ΔTm at 20 µM / Tm (GSK-3α): 20 µM inhibitor; for Tm difference vs DMSO, same protein: inhibitor minus DMSO; for Tm (fitted melting curve): in °C; for Tm: GSK-3α, cell extract
T1 construct: parallel detection of MAPK14, MAPKAPK2, MAPKAPK3, and GSK-3α; endogenous in cells; host or cells: HL-60 (ATCC CCL-240), living cells or cell extract
Protocol: (§1) For the differentiation of primary and secondary binding effects, CETSA experiments using cell extracts instead of living cells (cell extract test) are proposed in the literature. Therefore, we performed CETSA assays in HL-60 cell extracts under the same conditions as for living cells (Figure 1, Table 1, Supplementary Table S6).
(§2) HL-60 cells were expanded as described above for CETSA and TPP-TR to about 1.25 million cells per ml. 50 mL of the cell suspension, respectively, was transferred into 50 mL conical tubes. After centrifugation (300 rcf, 3 min, r.t.) and removing all of the supernating culture medium, the cells were washed twice with 25 mL PBS (r.t.) by gently resuspending the cells, followed by centrifugation (300 rcf, 3 min, r.t.) and the removal of the supernatant. The cells were transferred into pre-weighed 2 mL LoBind Eppendorf tubes using 1 mL PBS (r.t.), respectively, for resuspending. After centrifugation (300 rcf, 3 min, r.t.) and removing as much as possible of the supernatants, the cell wet weights were determined. The cells were stored at −80 °C after shock-freezing in liquid nitrogen.
(§3) Cell extracts were obtained by four freeze/thaw cycles as described above for CETSA and TPP-TR using 10 µL ice cold PBS supplemented with protease inhibitors per milligram of cell pellet wet weight for the initial resuspension of the pellet, followed by centrifugation (20,000 rcf, 30 min, 4 °C), and the recovery of the supernatant. After determining the protein content, the cell extracts were diluted to 1.8 mg/mL total protein concentration using ice-cold PBS supplemented with protease inhibitors and aliquots of 99 µL in PCR tube strips, and 1.1 mL in LoBind 1.5 mL Eppendorf tubes were shock-frozen in liquid nitrogen and stored at −80 °C or directly processed.
(§4) A fourth aliquot of 1.8 mg/mL HL-60 cell extract was supplemented with 2.2 µL of DMSO. […] After a brief centrifugation using a benchtop centrifuge, the temperature treatment at the ten different temperatures was performed as described in Section 4.1.1.
(§5) Additionally, the preparation of cell extracts containing the fraction of soluble, non-denatured proteins was performed as described in Section 4.1.1. for living cells, but omitting the freeze/thaw steps for cell lysis.
(§6) For each sample set comprising either ten temperature range samples or ten compound concentration range samples, the same volume of the cell extracts containing the fraction of soluble, non-denatured proteins was used for further analysis. This volume was determined using the two lowest temperature samples (36.5 and 41.2 °C) per temperature range sample set so that they contained an average of 5 µg total protein (e.g., 2.78 µL for all temperature range samples of a sample set whose two lowest temperature samples contain an average of 1.8 mg/mL protein). For the compound concentration range experiments, all samples of a set were used for averaging. The calculated volume was respectively transferred into PCR tubes of a tube strip, supplemented with SDS sample buffer (final concentrations: 25 mM dithiothreitol (DTT), 7.5% glycerol, 3% SDS, 37.5 mM Tris/HCl pH 7.0, 0.005% bromophenol blue), incubated for 10 min at r.t. and applied to SDS-PAGE under external cooling in an ice bath (MW marker: PageRuler pre-stained protein ladder (Thermo scientific, Waltham, MA, USA); NuPAGE 4–12% Bis-Tris Gels, 1.0 mm, Midi Protein Gel, 26-well (Thermo fisher scientific); ice cold MOPS SDS running buffer (50 mM MOPS, 50 mM Tris base, 0.1% SDS, 0.003% EDTA (free acid)); 50 V for 15 min, then 200 V for about 1.5 h, i.e., the rest of the run).

MAPKAPK2 [1] = target: T2, MAPKAPK2 (Homo sapiens, UniProt P49137); test: CETSA in HL-60 cell extract, immunoblot; format: binding; conditions: for Tm difference vs DMSO, same protein: MAPKAPK2, inhibitor minus DMSO
Protocol: as §1, §2, §3, §4, §5, §6
Target sequence in this assay (P49137 whole entry): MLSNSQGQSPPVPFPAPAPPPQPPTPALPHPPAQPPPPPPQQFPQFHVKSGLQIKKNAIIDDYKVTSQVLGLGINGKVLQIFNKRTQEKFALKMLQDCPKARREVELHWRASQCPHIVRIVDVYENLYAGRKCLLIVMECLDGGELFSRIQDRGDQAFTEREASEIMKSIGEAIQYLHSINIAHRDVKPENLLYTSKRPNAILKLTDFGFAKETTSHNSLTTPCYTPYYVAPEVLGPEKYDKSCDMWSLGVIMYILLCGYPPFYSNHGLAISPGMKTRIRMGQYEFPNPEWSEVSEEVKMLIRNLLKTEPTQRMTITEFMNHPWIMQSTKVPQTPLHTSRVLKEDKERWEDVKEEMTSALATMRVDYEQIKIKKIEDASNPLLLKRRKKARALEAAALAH

MAPKAPK2 [2] = target: T2, MAPKAPK2; test: TPP-CCR in living HL-60 cells; conditions: […] °C, TMT-MS
Target sequence in this assay (P49137 whole entry): as above
Target sequence in this assay (Q16539 2-360 partner limits assumed): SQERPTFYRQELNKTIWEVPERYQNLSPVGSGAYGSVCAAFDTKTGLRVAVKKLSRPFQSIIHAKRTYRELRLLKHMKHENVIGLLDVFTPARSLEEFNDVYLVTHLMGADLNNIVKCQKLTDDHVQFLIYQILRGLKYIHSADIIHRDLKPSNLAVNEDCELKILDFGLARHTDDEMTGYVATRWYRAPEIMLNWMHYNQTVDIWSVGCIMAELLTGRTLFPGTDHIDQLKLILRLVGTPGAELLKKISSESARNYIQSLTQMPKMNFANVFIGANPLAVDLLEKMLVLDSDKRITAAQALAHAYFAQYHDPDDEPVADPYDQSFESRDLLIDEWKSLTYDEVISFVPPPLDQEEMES

USP24 = USP24 (Homo sapiens, UniProt Q9UPU5); test: TPP-CCR in living HL-60 cells
MTMR1 = MTMR1 (Homo sapiens, UniProt Q13613); test: TPP-CCR in living HL-60 cells
[3] = read-out: ΔTm to DMSO in Cell Extract Compared to Living Cells (GSK-3α)
[4] = CETSA in cell extract (lysate), GSK3a
[5] = HL-60 cell extract, immunoblot, read-out: ΔTm to DMSO (GSK-3α)
[6] = MAPKAPK2, cell extract, immunoblot
[7] = living HL-60 cells, […] °C, TMT-MS

T1 sequence (P49840 whole entry): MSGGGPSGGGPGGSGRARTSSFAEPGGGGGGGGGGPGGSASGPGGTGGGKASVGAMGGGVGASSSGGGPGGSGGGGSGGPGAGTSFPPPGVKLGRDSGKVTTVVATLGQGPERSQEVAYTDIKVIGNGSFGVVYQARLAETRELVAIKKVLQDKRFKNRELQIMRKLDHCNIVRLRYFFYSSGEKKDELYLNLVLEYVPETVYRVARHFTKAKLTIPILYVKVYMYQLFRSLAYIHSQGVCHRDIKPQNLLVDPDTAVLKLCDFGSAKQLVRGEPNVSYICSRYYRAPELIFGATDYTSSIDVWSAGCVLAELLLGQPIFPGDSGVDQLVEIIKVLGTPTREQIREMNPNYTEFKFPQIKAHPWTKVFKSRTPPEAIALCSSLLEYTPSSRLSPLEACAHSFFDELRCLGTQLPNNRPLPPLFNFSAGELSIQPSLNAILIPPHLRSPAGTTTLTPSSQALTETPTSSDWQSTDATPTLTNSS
Chain of USP24 (Q9UPU5 whole entry): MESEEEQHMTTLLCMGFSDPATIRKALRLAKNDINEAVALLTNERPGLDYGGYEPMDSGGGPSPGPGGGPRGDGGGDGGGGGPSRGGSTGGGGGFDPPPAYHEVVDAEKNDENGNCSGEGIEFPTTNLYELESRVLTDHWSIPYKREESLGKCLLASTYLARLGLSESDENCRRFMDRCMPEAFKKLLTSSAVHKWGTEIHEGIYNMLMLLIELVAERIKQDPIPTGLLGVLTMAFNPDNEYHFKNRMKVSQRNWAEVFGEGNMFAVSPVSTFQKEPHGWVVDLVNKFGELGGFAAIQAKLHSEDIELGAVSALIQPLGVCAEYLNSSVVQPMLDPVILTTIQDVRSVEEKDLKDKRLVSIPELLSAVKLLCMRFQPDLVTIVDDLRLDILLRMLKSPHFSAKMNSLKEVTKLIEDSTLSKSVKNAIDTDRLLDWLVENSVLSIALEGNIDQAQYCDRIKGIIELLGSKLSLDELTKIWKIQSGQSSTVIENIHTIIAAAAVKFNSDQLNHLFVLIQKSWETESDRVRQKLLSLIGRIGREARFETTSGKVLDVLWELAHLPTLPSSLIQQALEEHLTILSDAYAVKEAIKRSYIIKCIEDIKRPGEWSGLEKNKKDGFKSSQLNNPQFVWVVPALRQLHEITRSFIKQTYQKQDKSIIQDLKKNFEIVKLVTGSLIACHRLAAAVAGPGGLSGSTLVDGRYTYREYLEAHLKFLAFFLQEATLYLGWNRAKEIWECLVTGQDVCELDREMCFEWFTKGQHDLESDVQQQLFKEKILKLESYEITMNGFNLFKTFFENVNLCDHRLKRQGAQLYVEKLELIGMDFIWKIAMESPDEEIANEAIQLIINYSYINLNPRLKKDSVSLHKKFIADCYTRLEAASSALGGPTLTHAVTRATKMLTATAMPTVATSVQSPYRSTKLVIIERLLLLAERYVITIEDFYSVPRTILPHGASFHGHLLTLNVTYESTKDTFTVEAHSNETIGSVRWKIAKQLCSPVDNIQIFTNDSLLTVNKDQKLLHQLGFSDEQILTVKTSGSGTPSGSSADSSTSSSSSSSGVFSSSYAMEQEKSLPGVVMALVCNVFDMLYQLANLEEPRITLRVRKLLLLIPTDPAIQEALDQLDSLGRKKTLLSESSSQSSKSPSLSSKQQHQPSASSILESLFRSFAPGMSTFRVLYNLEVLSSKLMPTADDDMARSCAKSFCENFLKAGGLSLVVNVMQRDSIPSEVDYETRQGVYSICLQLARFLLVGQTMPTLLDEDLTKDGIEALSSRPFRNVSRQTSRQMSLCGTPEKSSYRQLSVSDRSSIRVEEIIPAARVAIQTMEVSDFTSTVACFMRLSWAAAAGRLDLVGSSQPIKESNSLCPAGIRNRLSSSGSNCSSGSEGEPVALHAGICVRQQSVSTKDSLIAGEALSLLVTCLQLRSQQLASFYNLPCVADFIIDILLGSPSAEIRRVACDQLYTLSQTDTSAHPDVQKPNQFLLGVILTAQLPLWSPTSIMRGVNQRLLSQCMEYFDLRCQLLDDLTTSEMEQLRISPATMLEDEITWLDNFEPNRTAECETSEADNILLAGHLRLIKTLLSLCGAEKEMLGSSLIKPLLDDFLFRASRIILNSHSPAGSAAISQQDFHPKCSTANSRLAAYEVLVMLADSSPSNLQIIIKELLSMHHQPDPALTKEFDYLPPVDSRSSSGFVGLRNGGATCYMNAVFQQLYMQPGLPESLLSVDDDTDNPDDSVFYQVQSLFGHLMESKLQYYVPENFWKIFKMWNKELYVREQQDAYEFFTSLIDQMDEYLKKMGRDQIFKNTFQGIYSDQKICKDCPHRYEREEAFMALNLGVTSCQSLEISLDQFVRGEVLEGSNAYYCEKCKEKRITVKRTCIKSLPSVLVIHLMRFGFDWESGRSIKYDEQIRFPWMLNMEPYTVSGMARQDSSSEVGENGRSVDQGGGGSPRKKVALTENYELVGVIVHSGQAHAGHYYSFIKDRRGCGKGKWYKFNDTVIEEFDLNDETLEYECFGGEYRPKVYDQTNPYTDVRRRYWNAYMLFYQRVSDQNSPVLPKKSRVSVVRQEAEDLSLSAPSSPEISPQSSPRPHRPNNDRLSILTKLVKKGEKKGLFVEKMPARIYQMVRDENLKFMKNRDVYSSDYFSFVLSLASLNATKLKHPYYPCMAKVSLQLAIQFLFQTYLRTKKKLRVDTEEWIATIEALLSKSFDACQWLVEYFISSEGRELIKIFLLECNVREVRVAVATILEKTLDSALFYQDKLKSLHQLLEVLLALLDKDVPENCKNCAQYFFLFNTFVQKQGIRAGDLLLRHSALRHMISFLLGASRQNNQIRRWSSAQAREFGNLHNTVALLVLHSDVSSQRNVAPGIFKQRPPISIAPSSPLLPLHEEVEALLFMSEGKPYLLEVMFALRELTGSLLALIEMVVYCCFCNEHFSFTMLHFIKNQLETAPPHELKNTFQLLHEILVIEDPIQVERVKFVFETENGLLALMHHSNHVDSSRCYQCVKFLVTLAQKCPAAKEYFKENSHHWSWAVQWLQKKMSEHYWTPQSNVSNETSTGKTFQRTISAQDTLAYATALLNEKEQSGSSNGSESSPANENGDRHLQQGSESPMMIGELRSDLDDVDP

For `Cn1c(NC[C@@H](N)Cc2ccccc2)nc(-c2ccncc2)c(-c2ccc3ccccc3c2)c1=O` [AMG-548], the ΔTm at 20 µM (GSK-3α; [3]) was -0.05 °C, the “Tm difference vs DMSO, same protein” value (GSK-3α; [4]) was -0.76 and the “Tm (fitted melting curve)” value (GSK-3α; [4]) was 48.26. For the same molecule, the Tm (GSK-3α; immunoblot) was 48.26 °C, the “Tm (GSK-3α)” value (GSK-3α; HL-60 cell extract, immunoblot) was 48.26 °C and the ΔTm at 20 µM (GSK-3α; [5]) was -0.76 °C. For the same molecule, the “ΔTm to DMSO in Cell Extract Compared to Living Cells (MAPKAPK2)” value (MAPKAPK2 [1]; 20 µM inhibitor) was −2.22 °C, the “Tm difference vs DMSO, same protein” value (MAPKAPK2 [1]; CETSA in cell extract (lysate)) was 2.96 and the “Tm (fitted melting curve)” value (MAPKAPK2 [1]; CETSA in cell extract (lysate), MAPKAPK2, in °C) was 51.06. The “Tm (MAPKAPK2)” value (MAPKAPK2 [1]; HL-60 cell extract, 20 µM inhibitor, immunoblot) was 51.06 °C, the “ΔTm to DMSO (MAPKAPK2)” value (MAPKAPK2 [1]; HL-60 cell extract, 20 µM inhibitor, immunoblot, 20 µM) was 3.0 °C and 2.96 °C and the “ΔTm to DMSO in cell extract compared to living cells” value (MAPKAPK2 [1]; MAPKAPK2, cell extract minus living cells) was -2.22 °C. For the same molecule, the Tm (MAPKAPK2 [1]; [6]) was 51.06 °C, the “ΔTm to DMSO” value (MAPKAPK2 [1]; [6]) was 2.96 °C and the “Hill slope (MAPKAPK2)” value (MAPKAPK2 [2]) was 0.72. For the same molecule, the pEC50 (USP24) was 8.57, the “Hill slope (USP24)” value (USP24; [7]) was 0.71 and the pEC50 (MTMR1) was 6.98. The “Hill slope (MTMR1)” value (MTMR1; [7]) was 0.38.
`Cc1cnc(Nc2ccc(F)cc2Cl)nc1-c1c[nH]c(C(=O)N[C@H](CO)c2cccc(Cl)c2)c1` [ERK 11e] was tested, and the ΔTm at 20 µM (GSK-3α; [3]) was 1.1 °C, the “Tm difference vs DMSO, same protein” value (GSK-3α; [4]) was 1.24 and the “Tm (fitted melting temperature)” value (GSK-3α; CETSA in cell extract (lysate), GSK3a, melting curve fit, in °C (unit assumed)) was 50.2547. For the same molecule, the “Tm (fitted melting curve)” value (GSK-3α; [4]) was 50.25, the Tm (GSK-3α; immunoblot) was 50.25 °C and the “Tm (GSK-3α)” value (GSK-3α; HL-60 cell extract, immunoblot) was 50.25 °C. For the same molecule, the ΔTm at 20 µM (GSK-3α; [5]) was 1.24 °C, the ΔTm at 20 µM (MAPKAPK2 [1]; 20 µM inhibitor, read-out: ΔTm to DMSO in Cell Extract Compared to Living Cells (MAPKAPK2)) was 0.25 °C and the “Tm difference vs DMSO, same protein” value (MAPKAPK2 [1]; CETSA in cell extract (lysate)) was 0.23. For the same molecule, the ΔTm at 20 µM (MAPKAPK2 [1]; HL-60 cell extract, 20 µM inhibitor, immunoblot, read-out: ΔTm to DMSO (MAPKAPK2)) was 0.23 °C.
